For data set [1], the target named is T1, Bromodomain-containing protein 4 (Homo sapiens, UniProt O60885). Briefly: Inhibition of His-tagged BRD4-BD1 (unknown origin) at 10 nM incubated for 30 mins by Alphascreen assay relative to control.
Data set [2] deals with PI3-kinase p110-delta/p85-alpha (Homo sapiens) (UniProt P27986+O00329). Nature of the data set: Inhibition of p110delta/p85alpha (unknown origin) at 100 nM incubated for 2 hrs in presence of ATP by ADP-kinaseGlo reagent based assay relative to control. The format is protein-complex assay.
Data set [3] relates to SUD4. Nature of the data set: Induction of apoptosis in human SU-DHL-4 cells assessed as necrotic cells at 1 uM incubated for 24 hrs by Annexin V-FITC/PI staining based flow cytometric analysis (reference value: 0.642 %). The format is functional.
For data set [4], the system named is SU-DHL-6. Nature of the data set: Antitumor activity against human SU-DHL-6 cells xenografted in female BALB/c mouse model assessed as tumor growth inhibition at 20 mg/kg, po administered once daily via gavage for 15 days relative to control. In kind it is functional. The conditions noted are these: SU-DHL-6, 360 h, time 15 day, read-out: TGI.
The nature of data set [5]: Toxicity in female BALB/c mouse model xenografted with human SU-DHL-6 cells assessed as effect on body weight at 20 mg/kg, po administered once daily via gavage for 15 days. In kind it is organism-based. Conditions: in vivo, 360 h, time 15 day; call rule not given here.
Data set [6] has as its system SU-DHL-6. Briefly: Induction of apoptosis in human SU-DHL-6 cells assessed as viable cells at 1 uM incubated for 24 hrs by Annexin V-FITC/PI staining based flow cytometric analysis (reference value: 61.2 %). The format is functional. The conditions noted are these: read-out: Activity.
Data set [7] deals with SU-DHL-6. Nature of the data set: Induction of apoptosis in human SU-DHL-6 cells assessed as necrotic cells at 1 uM incubated for 24 hrs by Annexin V-FITC/PI staining based flow cytometric analysis (reference value: 0.246 %). In kind it is functional.
In data set [8] the test system is SUD4. Briefly: Antiproliferative against activity human SU-DHL-4 cells assessed as inhibition of cell growth incubated for 72 hrs by Celltiter-luminescence analysis. The format is functional, cell-based. Conditions: SU-DHL-4, 72 h.
In data set [9] the test system is SUD4. Briefly: Induction of apoptosis in human SU-DHL-4 cells assessed as viable cells at 1 uM incubated for 24 hrs by Annexin V-FITC/PI staining based flow cytometric analysis (reference value: 65.2 %). Conditions: read-out: Activity. In kind it is functional.
Data set [10] deals with SUD4. Briefly: Induction of apoptosis in human SU-DHL-4 cells assessed as early apoptotic cells at 1 uM incubated for 24 hrs by Annexin V-FITC/PI staining based flow cytometric analysis (reference value: 25.3 %). The format is functional.
The target in data set [11] is T1, Bromodomain-containing protein 4. Nature of the data set: Inhibition of His-tagged BRD4-BD1 (unknown origin) incubated for 30 mins in presence of ATP by Alphascreen assay.
Data set [12] concerns the target Bromodomain-containing protein 3 (Homo sapiens, UniProt Q15059). Nature of the data set: Inhibition of His-tagged BRD3-BD1 (unknown origin) incubated for 30 mins in presence of ATP by Alphascreen assay.
The target of data set [13] is Phosphatidylinositol 4,5-bisphosphate 3-kinase catalytic subunit beta isoform (Homo sapiens, UniProt P42338). Nature of the data set: Inhibition of PI3Kbeta (unknown origin) incubated for 2 hrs in presence of ATP by ADP-kinaseGlo reagent based assay.
Data set [14] can be described thus: Toxicity in female BALB/c mouse model xenografted with human SU-DHL-6 cells assessed as effect on liver histopathology at 20 mg/kg, po administered once daily via gavage for 15 days by H and E staining based analysis. In kind it is organism-based. The conditions noted are these: in vivo, 360 h, time 15 day.
The subject of data set [15] is SU-DHL-6. Nature of the data set: Antiproliferative against activity human SU-DHL-6 cells assessed as inhibition of cell growth incubated for 72 hrs by Celltiter-luminescence analysis. The format is functional, cell-based. Conditions: SU-DHL-6, 72 h.
Data set [16] concerns the target Phosphatidylinositol 4,5-bisphosphate 3-kinase catalytic subunit gamma isoform (Homo sapiens, UniProt P48736). Nature of the data set: Inhibition of PI3Kgamma (unknown origin) incubated for 2 hrs in presence of ATP by ADP-kinaseGlo reagent based assay.
Data set [17] concerns the target PI3-kinase p110-delta/p85-alpha (Homo sapiens, UniProt O00329). Briefly: Inhibition of p110delta/p85alpha (unknown origin) incubated for 2 hrs in presence of ATP by ADP-kinaseGlo reagent based assay. In kind it is protein-complex assay.
The test system of data set [18] is SU-DHL-6. Nature of the data set: Induction of apoptosis in human SU-DHL-6 cells assessed as late apoptotic cells at 1 uM incubated for 24 hrs by Annexin V-FITC/PI staining based flow cytometric analysis (reference value: 6.43 %). In kind it is functional.
Data set [19] has as its system SU-DHL-6. Nature of the data set: Induction of apoptosis in human SU-DHL-6 cells assessed as early apoptotic cells at 1 uM incubated for 24 hrs by Annexin V-FITC/PI staining based flow cytometric analysis (reference value: 32.1 %). The format is functional.
Data set [20] deals with Bromodomain-containing protein 2 (Homo sapiens, UniProt P25440). Nature of the data set: Inhibition of His-tagged BRD2-BD1 (unknown origin) incubated for 30 mins in presence of ATP by Alphascreen assay.
Data set [21] deals with SU-DHL-6. Nature of the data set: Antitumor activity against human SU-DHL-6 cells xenografted in female BALB/c mouse model assessed as downregulation of Ki67 level in tumor at 20 mg/kg, po administered once daily via gavage for 15 days by immunohistochemical staining based analysis. In kind it is functional, organism-based. The conditions noted are these: time 15.0 day.

In data set [22] the test system is SUD4. Nature of the data set: Induction of apoptosis in human SU-DHL-4 cells assessed as late apoptotic cells at 1 uM incubated for 24 hrs by Annexin V-FITC/PI staining based flow cytometric analysis (reference value: 6.74 %). In kind it is functional.
For data set [23], the target named is Serine/threonine-protein kinase mTOR (Homo sapiens, UniProt P42345). Briefly: Inhibition of mTOR (unknown origin) incubated for 2 hrs in presence of ATP by ADP-kinaseGlo reagent based assay.
Data set [24] is described as follows: Toxicity in female BALB/c mouse model xenografted with human SU-DHL-6 cells assessed as effect on kidney histopathology at 20 mg/kg, po administered once daily via gavage for 15 days by H and E staining based analysis. In kind it is organism-based. Conditions: in vivo, 360 h, time 15 day.
Data set [25] addresses Bromodomain testis-specific protein (Homo sapiens, UniProt Q58F21). Briefly: Inhibition of His-tagged BRDT-BD1 (unknown origin) incubated for 30 mins in presence of ATP by Alphascreen assay.
Data set [26] in a line: Toxicity in female BALB/c mouse model xenografted with human SU-DHL-6 cells assessed as effect on heart histopathology at 20 mg/kg, po administered once daily via gavage for 15 days by H and E staining based analysis. In kind it is organism-based. The conditions noted are these: in vivo, 360 h, time 15 day.
Data set [27] deals with T1, Bromodomain-containing protein 4. Briefly: Inhibition of His-tagged BRD4-BD2 (unknown origin) incubated for 30 mins in presence of ATP by Alphascreen assay.
Data set [28] concerns WI-38. Briefly: Cytotoxicity against human WI-38 cells assessed as inhibition of cell growth at 1 uM incubated for 72 hrs by Celltiter-luminescence analysis. The conditions noted are these: wi-38, 72 h. The format is toxicity, cell-based.
Data set [29] concerns HUVEC. Nature of the data set: Cytotoxicity against HUVEC cells assessed as inhibition of cell growth at 1 uM incubated for 72 hrs by Celltiter-luminescence analysis. Conditions: human. The format is toxicity, cell-based.
Data set [30] is described as follows: Toxicity in female BALB/c mouse model xenografted with human SU-DHL-6 cells assessed as effect on lung histopathology at 20 mg/kg, po administered once daily via gavage for 15 days by H and E staining based analysis. In kind it is organism-based. The conditions noted are these: in vivo, 360 h, time 15 day.
Data set [31] in a line: Toxicity in female BALB/c mouse model xenografted with human SU-DHL-6 cells assessed as effect on spleen histopathology at 20 mg/kg, po administered once daily via gavage for 15 days by H and E staining based analysis. In kind it is organism-based. The conditions noted are these: in vivo, 360 h, time 15 day.
The subject of data set [32] is SU-DHL-6. Briefly: Antiproliferative against activity human SU-DHL-6 cells assessed as inhibition of cell growth incubated for 72 hrs in presence of 10:1 compound:ABBV-75 by Celltiter-luminescence analysis. In kind it is functional, cell-based. Conditions: SU-DHL-6, 72 h.
The test system of data set [33] is SUD4. Briefly: Antiproliferative against activity human SU-DHL-4 cells assessed as inhibition of cell growth incubated for 72 hrs in presence of 10:1 compound:ABBV-75 by Celltiter-luminescence analysis. The conditions noted are these: SU-DHL-4, 72 h. The format is functional, cell-based.

PI3-kinase p110-delta/p85-alpha, sequence (P27986 whole entry): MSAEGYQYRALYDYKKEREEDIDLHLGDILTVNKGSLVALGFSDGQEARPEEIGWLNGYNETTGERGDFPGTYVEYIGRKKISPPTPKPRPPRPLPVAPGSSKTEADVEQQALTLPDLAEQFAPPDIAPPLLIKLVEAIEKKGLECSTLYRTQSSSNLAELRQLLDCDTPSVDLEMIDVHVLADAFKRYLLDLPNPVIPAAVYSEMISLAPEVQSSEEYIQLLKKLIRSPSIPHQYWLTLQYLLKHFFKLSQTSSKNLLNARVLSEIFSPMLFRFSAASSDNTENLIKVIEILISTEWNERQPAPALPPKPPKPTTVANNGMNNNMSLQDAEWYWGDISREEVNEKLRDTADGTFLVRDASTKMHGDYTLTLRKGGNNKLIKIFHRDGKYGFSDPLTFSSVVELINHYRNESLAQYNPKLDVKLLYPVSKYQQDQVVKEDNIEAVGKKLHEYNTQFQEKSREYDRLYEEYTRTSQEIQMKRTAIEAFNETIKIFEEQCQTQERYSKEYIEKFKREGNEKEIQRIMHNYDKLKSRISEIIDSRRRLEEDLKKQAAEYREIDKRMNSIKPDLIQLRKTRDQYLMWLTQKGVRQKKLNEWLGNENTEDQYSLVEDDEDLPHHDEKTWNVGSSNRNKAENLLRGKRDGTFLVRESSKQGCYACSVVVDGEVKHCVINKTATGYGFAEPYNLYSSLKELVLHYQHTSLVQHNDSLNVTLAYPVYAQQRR
PI3-kinase p110-delta/p85-alpha, sequence (O00329 whole entry): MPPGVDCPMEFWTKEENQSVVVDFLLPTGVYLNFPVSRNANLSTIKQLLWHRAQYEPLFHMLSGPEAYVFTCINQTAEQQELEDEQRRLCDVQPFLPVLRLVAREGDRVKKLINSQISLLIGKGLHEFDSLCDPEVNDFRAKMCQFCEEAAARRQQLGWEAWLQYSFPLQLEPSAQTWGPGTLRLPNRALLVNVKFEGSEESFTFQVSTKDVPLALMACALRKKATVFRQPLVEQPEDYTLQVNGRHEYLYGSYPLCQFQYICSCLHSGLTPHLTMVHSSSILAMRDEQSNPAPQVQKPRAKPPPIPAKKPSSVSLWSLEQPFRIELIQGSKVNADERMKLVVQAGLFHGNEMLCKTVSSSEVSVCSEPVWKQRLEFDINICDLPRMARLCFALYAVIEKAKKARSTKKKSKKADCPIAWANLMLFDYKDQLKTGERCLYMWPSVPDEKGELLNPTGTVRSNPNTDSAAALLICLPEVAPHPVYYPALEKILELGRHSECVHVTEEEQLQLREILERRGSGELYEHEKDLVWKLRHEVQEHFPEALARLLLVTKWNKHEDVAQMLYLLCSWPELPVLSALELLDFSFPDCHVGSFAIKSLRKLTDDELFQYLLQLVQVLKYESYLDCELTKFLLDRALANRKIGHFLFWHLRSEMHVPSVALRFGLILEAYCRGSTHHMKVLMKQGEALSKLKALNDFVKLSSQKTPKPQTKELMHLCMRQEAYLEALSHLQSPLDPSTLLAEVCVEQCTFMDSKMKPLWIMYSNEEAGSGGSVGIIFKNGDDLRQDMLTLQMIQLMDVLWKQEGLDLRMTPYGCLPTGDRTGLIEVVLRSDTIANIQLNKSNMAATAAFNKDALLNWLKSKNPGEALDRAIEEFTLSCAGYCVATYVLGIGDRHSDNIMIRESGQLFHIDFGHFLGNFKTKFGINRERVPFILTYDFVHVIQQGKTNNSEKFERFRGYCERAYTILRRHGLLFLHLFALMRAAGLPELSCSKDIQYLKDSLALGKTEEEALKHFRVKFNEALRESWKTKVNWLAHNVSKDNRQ
Bromodomain-containing protein 3, sequence (Q15059 whole entry, canonical isoform): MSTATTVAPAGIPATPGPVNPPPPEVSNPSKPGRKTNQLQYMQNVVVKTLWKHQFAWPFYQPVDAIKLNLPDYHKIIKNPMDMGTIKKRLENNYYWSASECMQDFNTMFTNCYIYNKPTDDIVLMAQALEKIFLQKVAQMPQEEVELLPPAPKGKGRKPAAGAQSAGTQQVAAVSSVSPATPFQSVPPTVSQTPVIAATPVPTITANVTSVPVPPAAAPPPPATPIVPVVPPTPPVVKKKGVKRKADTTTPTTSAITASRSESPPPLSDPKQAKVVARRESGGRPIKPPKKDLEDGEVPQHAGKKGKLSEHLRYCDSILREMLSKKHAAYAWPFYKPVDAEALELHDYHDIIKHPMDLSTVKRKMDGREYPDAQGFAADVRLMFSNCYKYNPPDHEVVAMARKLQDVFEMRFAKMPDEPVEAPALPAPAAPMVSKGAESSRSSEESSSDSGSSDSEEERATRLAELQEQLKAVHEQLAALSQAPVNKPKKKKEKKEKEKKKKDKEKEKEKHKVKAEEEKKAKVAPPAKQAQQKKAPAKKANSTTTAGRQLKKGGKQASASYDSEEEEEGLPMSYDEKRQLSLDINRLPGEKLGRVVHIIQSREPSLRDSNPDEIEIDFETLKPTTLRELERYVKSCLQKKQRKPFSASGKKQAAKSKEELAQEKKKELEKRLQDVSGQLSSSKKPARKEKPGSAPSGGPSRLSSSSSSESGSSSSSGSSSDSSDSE
Bromodomain-containing protein 2, sequence (P25440 whole entry): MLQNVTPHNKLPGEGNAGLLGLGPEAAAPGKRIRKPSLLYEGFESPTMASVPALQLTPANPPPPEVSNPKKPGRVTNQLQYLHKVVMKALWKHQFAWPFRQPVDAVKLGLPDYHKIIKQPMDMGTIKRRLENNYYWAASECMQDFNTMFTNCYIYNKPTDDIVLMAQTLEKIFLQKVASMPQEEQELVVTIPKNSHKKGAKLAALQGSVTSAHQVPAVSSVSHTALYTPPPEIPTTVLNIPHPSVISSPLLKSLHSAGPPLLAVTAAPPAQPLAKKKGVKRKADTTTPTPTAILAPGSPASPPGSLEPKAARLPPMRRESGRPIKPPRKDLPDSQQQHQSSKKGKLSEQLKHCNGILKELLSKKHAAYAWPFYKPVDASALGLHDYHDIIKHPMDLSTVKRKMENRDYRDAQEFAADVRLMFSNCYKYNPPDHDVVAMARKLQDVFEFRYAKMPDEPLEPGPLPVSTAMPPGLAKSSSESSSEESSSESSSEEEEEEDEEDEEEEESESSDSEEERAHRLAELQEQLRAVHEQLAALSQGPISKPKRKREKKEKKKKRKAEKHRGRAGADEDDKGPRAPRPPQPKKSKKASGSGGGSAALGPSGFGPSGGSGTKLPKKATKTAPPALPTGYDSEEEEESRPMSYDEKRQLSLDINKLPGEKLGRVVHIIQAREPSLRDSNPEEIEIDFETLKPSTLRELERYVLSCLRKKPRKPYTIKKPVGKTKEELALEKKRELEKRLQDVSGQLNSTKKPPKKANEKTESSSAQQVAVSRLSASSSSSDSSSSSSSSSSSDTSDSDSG
Phosphatidylinositol 4,5-bisphosphate 3-kinase catalytic subunit beta isoform, sequence (P42338 whole entry, canonical isoform): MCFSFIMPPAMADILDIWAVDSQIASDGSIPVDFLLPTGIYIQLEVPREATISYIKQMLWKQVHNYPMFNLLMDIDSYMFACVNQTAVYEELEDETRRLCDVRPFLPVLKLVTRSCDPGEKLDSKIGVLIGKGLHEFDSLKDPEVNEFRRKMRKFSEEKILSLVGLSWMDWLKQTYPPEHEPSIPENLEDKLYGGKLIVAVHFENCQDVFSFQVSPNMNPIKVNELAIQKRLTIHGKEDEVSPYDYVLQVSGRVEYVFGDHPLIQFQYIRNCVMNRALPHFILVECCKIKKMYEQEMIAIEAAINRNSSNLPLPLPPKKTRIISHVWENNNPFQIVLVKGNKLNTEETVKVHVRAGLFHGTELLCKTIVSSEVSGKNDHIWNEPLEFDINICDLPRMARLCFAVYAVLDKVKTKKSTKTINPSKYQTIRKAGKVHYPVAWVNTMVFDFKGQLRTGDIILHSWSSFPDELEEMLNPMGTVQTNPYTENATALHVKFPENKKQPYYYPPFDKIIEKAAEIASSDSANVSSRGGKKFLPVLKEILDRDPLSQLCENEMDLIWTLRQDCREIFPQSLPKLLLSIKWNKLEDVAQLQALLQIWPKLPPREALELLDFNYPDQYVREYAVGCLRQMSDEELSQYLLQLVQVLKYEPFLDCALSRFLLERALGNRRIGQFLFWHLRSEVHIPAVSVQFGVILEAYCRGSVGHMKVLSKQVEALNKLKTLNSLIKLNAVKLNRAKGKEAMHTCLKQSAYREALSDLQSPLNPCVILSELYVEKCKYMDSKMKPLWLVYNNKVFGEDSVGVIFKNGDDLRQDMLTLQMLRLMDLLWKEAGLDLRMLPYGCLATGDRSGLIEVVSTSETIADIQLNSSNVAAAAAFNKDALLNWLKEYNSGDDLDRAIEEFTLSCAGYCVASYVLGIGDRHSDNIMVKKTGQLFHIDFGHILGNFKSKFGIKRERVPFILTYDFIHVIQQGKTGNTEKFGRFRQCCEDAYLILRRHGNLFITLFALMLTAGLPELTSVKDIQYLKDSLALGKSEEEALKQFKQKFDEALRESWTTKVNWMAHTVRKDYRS

Consider `CC(=O)Nc1cc(-c2nc(N3CCOCC3)c3sc(CN4CCN(CC5CC5)CC4)cc3n2)cn(C)c1=O`, for which the inhibition in data set [1] worked out at 3%; in [2] it was 21.5%.

Take `O=c1cc(N2CCOCC2)oc2c(-c3ccc4c(c3)OCCO4)csc12`: the Activity in data set [3] is given as 1.05%; in data set [5], “Non-toxic”; in data set [7], 0.61%; in data set [10] it was 26.8%; in data set [14], “Non-toxic”; in data set [18] it was 5.53%. Moreover, the Activity in [19] was 33.6%; in data set [21] it was “Active; More Effective Than Sf2523”; in data set [22], 10.4%; in data set [24], “Non-toxic”; in data set [26], “Non-toxic”; in data set [28], “Toxic”. In addition, the Activity entry in data set [29] is recorded as “Toxic”; in data set [30] it was “Non-toxic”; in [31], “Non-toxic”. Moreover, the inhibition in vivo at 20 mg/kg in data set [4] was 62.3%. The results for the viability at 1 µM in [6] and in data set [9] were 60.2% and 61.7%, respectively. In addition, the IC50 in [8] amounted to 1880 nM; in data set [11], 312 nM; in data set [12] it was 303 nM; in [13], 129 nM; in data set [15], 518 nM; in data set [16] it was 251 nM. The IC50 in data set [17] amounted to 158 nM; in data set [20] it was 383 nM; in data set [23], 599 nM; in data set [25] it was 1230 nM; in data set [27], 235 nM.

In the case of `Cn1cc(-c2nc(N3CCOCC3)c3sc(CN4CCN(CC5CC5)CC4)cc3n2)c2cn[nH]c2c1=O`, the inhibition was found to be 12.7% in [1] and 43.5% in [2].

Regarding `C[C@H](N)C(=O)N1CCN(Cc2cc3nc(-c4cn(C)c(=O)c5[nH]ccc45)nc(N4CCOCC4)c3s2)CC1`, the inhibition came to 59.9% in data set [1] and 19.5% in [2].

For `Cn1cc(-c2nc(N3CCCCC3)c3sc(CN4CCN(CC5CC5)CC4)cc3n2)c2cc[nH]c2c1=O`, the inhibition in [1] was determined as 35%; in data set [2], 0.9%.

Turning to `Cn1cc(-c2nc(N3CCOCC3)c3sc(CN4CCN(CC5CC5)CC4)cc3n2)cc(N)c1=O`, the inhibition in data set [1] was found to be 18.1%; in data set [2], 7.7%.

On to `Cn1cc(-c2nc(N3CCOCC3)c3sc(CN4CCC(O)CC4)cc3n2)c2cc[nH]c2c1=O`, for which the inhibition turned out to be 36% in data set [1] and 19.4% in data set [2].

On to `Fc1ccc2[nH]ccc2c1-c1nc(N2CCOCC2)c2sc(CN3CCN(CC4CC4)CC3)cc2n1`, for which the IC50 in data set [32] was found to be 10 nM; in data set [8] it was 263 nM; in [33], 14 nM; in [15], 1820 nM; in data set [17] it was 23 nM.

Consider `Cn1cc(-c2nc(N3CCOCC3)c3sc(CN4CCN(S(C)(=O)=O)CC4)cc3n2)c2cc[nH]c2c1=O`, for which the inhibition in data set [1] was found to be 32.7%; in data set [2], 45.7%. Further, the IC50 in [8] turned out to be 665 nM; in data set [11], 15 nM; in data set [15] it was 270 nM; in data set [17] it was 96 nM.

As for `CC(=O)N1CCN(Cc2cc3nc(-c4cn(C)c(=O)c5[nH]ccc45)nc(N4CCOCC4)c3s2)CC1`, the results for the inhibition in [1] and in [2] were 44.2% and 46.9%, respectively. Besides, the IC50 in data set [8] is 166 nM; in data set [11] it was 11 nM; in data set [15], 79 nM; in [17] it was 108 nM.

For the molecule `CNc1cc(-c2nc(N3CCOCC3)c3sc(CN4CCN(CC5CC5)CC4)cc3n2)cn(C)c1=O`, the inhibition in [1] stood at 9.1%; in data set [2], 6%.

These data come from ChEMBL document CHEMBL6153089, “Design, Synthesis, and Biological Evaluation of Thieno[3,2-d]pyrimidine Derivatives as the First Bifunctional PI3Kδ Isoform Selective/Bromodomain and Extra-Terminal Inhibitors” (J Med Chem, 2025).
